Results on eleven compounds are retold here after US20240398828A1, “HETERO-ATOM CONTAINING COMPOUNDS AND USES THEREOF” (Kumquat Biosciences Inc., priority 2021, published 2024).

For assay [1], the target named is T1, PTPN1 (i.e., PTP1B) (Homo sapiens, UniProt P18031).
T1 sequence (P18031 1-435): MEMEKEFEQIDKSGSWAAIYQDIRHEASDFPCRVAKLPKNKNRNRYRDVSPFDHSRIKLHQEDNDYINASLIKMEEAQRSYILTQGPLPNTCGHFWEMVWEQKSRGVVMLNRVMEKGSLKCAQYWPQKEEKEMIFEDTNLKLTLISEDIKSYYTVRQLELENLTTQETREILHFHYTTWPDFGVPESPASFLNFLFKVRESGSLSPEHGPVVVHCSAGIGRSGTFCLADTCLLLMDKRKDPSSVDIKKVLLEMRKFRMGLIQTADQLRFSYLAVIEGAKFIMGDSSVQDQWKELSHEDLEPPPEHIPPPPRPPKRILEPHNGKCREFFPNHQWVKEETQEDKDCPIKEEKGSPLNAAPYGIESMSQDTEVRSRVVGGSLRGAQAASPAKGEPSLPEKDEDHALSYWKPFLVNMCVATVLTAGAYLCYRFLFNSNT
Put plainly: Phosphatase activity assay (DiFMUP substrate), PTP1B. It counts as biochemical. The settings on record: compounds binned ≤1 uM or >1 uM. The method in brief: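 First, serially diluted inhibitor is mixed about 2 minutes with enzyme in pH 7.5 HEPES/NaCl/EDTA/DTT/Tween-20 buffer. Next, DiFMUP is added at the enzyme's Km, approximately 45 μM for PTPN2. Finally, DiFMU appearance is read continuously at room temperature and rates are fitted for IC50.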

For assay [2], the target named is T2, PTPN2 (i.e., TC-PTP) (Homo sapiens, UniProt P17706).
T2 sequence (P17706 1-415): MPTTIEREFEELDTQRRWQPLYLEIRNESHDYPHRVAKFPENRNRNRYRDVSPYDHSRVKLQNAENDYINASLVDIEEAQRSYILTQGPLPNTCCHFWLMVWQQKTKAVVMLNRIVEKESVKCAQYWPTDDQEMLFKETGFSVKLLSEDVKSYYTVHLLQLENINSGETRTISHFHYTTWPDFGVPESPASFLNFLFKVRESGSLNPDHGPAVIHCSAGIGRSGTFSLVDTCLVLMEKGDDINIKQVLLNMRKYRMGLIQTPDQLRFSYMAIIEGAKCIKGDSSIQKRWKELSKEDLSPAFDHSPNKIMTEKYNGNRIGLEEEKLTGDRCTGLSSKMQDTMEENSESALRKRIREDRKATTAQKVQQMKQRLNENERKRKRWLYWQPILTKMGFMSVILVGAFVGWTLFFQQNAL
Put plainly: Phosphatase activity assay (DiFMUP substrate), PTPN2. The note with it: compounds binned ≤1 uM or >1 uM. It counts as biochemical. An outline of the steps:
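Continuous fluorogenic readout of DiFMUP dephosphorylation at room temperature, substrate set at Km for each phosphatase (about 45 μM in the PTPN2 assay). The buffer contains 1 mM DTT and 0.001% Tween-20, pH 7.5.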

On to `Cc1noc(C)c1Cn1cc(-c2ccc(O)c(N3CC(=O)NS3(=O)=O)c2F)cn1` [Compound 309, 5-(3-(1-((3,5-dimethylisoxazol-4-yl)methyl)-1H-pyrazol-4-yl)-2-fluoro-6-hydroxyphenyl)-1,2,5-thiadiazolidin-3-one 1,1-dioxide], for which the IC50 in assay [1] and in assay [2] was not above 1000 nM in each case.
`O=C1CN(c2c(O)ccc(-c3cc(N4CC(F)(F)C4)n[nH]3)c2F)S(=O)(=O)N1` [Compound 451, 5-(3-(3-(3,3-difluoroazetidin-1-yl)-1H-pyrazol-5-yl)-2-fluoro-6-hydroxyphenyl)-1,2,5-thiadiazolidin-3-one 1,1-dioxide]: the IC50 in assay [1] and in assay [2] was not above 1000 nM throughout.
On to `O=C1C=C(c2c(O)ccc(-c3cn(CC4CCCCC4)cn3)c2F)S(=O)(=O)N1` [Compound 277, 5-(3-(1-(cyclohexylmethyl)-1H-imidazol-4-yl)-2-fluoro-6-hydroxyphenyl)isothiazol-3(2H)-one 1,1-dioxide], for which the IC50 in assay [1] and in assay [2] was not above 1000 nM each time.
Regarding `Cn1nc(-c2ccc(O)c(N3CC(=O)NS3(=O)=O)c2F)cc1C1CCCN1` (stereo not shown) [Compound 468, 5-(2-fluoro-6-hydroxy-3-(1-methyl-5-(pyrrolidin-2-yl)-1H-pyrazol-3-yl)phenyl)-1,2,5-thiadiazolidin-3-one 1,1-dioxide], the IC50 in assay [1] is not above 1000 nM; in assay [2], more than 1000 nM.
As to `O=C1CN(c2c(O)ccc(-c3cnn(C4CC5CCC(C4)N5C(=O)C4CC4)c3)c2F)S(=O)(=O)N1` (stereo not shown) [Compound 411, 5-(3-(1-(8-(cyclopropanecarbonyl)-8-azabicyclo[3.2.1]octan-3-yl)-1H-pyrazol-4-yl)-2-fluoro-6-hydroxyphenyl)-1,2,5-thiadiazolidin-3-one 1,1-dioxide], the 50% inhibitory concentration (IC50) in assay [1] and in assay [2] was not above 1000 nM in each case.
Regarding `O=C1CN(c2c(O)ccc(-c3cc(C4CC4)n(CC4CCNC4)n3)c2F)S(=O)(=O)N1` (stereo not shown) [Compound 329, 5-(3-(5-cyclopropyl-1-(pyrrolidin-3-ylmethyl)-1H-pyrazol-3-yl)-2-fluoro-6-hydroxyphenyl)-1,2,5-thiadiazolidin-3-one 1,1-dioxide], the concentration for half-maximal inhibition (IC50) in assay [1] and in assay [2] was not above 1000 nM each time.
Consider `N#CC1(n2cc(-c3ccc(O)c(N4CC(=O)NS4(=O)=O)c3F)c(F)n2)CC1` [Compound 474, 1-(4-(3-(1,1-dioxido-4-oxo-1,2,5-thiadiazolidin-2-yl)-2-fluoro-4-hydroxyphenyl)-3-fluoro-1H-pyrazol-1-yl)cyclopropane-1-carbonitrile], for which the IC50 in assay [1] and in assay [2] was not above 1000 nM each time.
For `CN1CC2(CCC(n3cc(-c4ccc(O)c(N5CC(=O)NS5(=O)=O)c4F)cn3)C2)C1` (stereo not shown) [Compound 442, 5-(2-fluoro-6-hydroxy-3-(1-(2-methyl-2-azaspiro[3.4]octan-6-yl)-1H-pyrazol-4-yl)phenyl)-1,2,5-thiadiazolidin-3-one 1,1-dioxide], the IC50 in assay [1] and in assay [2] was not above 1000 nM each time.
For the compound `O=C1C=C(c2c(O)ccc(-c3cc(C4CC4)n[nH]3)c2F)S(=O)(=O)N1` [Compound 400, 5-(3-(3-cyclopropyl-1H-pyrazol-5-yl)-2-fluoro-6-hydroxyphenyl)isothiazol-3(2H)-one 1,1-dioxide], the 50% inhibitory concentration (IC50) in assay [1] and in assay [2] was not above 1000 nM each time.
`Cc1cc(-c2ccc(O)c(N3CC(=O)NS3(=O)=O)c2F)on1` [Compound 182, 5-(2-fluoro-6-hydroxy-3-(3-methylisoxazol-5-yl)phenyl)-1,2,5-thiadiazolidin-3-one 1,1-dioxide]: the IC50 in assay [1] and in assay [2] was not above 1000 nM throughout.
On to `N#Cc1ccc(-n2cnc(-c3ccc(O)c(N4CC(=O)NS4(=O)=O)c3F)c2)cc1F` [Compound 287, 4-(4-(3-(1,1-dioxido-4-oxo-1,2,5-thiadiazolidin-2-yl)-2-fluoro-4-hydroxyphenyl)-1H-imidazol-1-yl)-2-fluorobenzonitrile], for which the half-inhibitory concentration (IC50) in assay [1] and in assay [2] was not above 1000 nM each time.

One may read the IC50 as the concentration that inhibits the measured activity by half.
